Measured values from PubChem BioAssay (NCI).
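Method: 48-hour compound exposure of cells in 96-well plates, five concentrations, linear interpolation of endpoints. GI50 is the concentration that inhibits growth by half. At the TGI there is no net growth.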

Experiments:
Experiment in all cases: inhibition of tumour cell growth, NCI panel, 48 h
MOLT-4 leukemia = system: MOLT-4 leukemia
A498 renal = system: A498 renal
HS 578T breast = system: HS 578T breast
SF-268 CNS = system: SF-268 CNS
A549 NSCLC = system: A549 NSCLC
NCI-H23 lung = system: NCI-H23 lung
HCT-116 colon = system: HCT-116 colon
HCC-2998 colon = system: HCC-2998 colon
UACC-257 melanoma = system: UACC-257 melanoma
DU-145 prostate = system: DU-145 prostate

SMILES | GI50 (MOLT-4 leukemia) [µM] | TGI (MOLT-4 leukemia) [µM] | GI50 (A498 renal) [µM] | TGI (A498 renal) [µM] | GI50 (HS 578T breast) [µM] | TGI (HS 578T breast) [µM] | GI50 (SF-268 CNS) [µM] | TGI (SF-268 CNS) [µM] | GI50 (A549 NSCLC) [µM] | TGI (A549 NSCLC) [µM] | GI50 (NCI-H23 lung) [µM] | TGI (NCI-H23 lung) [µM] | GI50 (HCT-116 colon) [µM] | TGI (HCT-116 colon) [µM] | GI50 (HCC-2998 colon) [µM] | TGI (HCC-2998 colon) [µM] | GI50 (UACC-257 melanoma) [µM] | TGI (UACC-257 melanoma) [µM] | GI50 (DU-145 prostate) [µM] | TGI (DU-145 prostate) [µM]
CSc1nc2nc3c(nc2c(=O)n1C)C(=O)c1ccccc1C3=O | 0.227 | 0.581 | 0.186 | 0.768 | 0.226 | 0.678 | 0.294 | 1.09 | 0.0387 | 0.184 | 0.142 | 0.422 | 0.149 | 1.13 | 0.275 | 0.855 | 0.131 | 0.265 | 0.216 | 0.623
O=C(NCCCc1cn[nH]c1)c1ccc(-c2ccncc2)c(C#Cc2ccc(F)cc2)c1 | 1.02 | > 57 | 20.1 | > 68.5 | 18.9 | > 100 | 58.8 | > 100 | 0.481 | > 100 | 14.5 | > 100 | < 0.01 | 15.2 |  | 26.1 | 17.6 | > 100 | < 0.01 | > 100
Nc1nc2c(C(=O)NCc3cccs3)nnn2c2cccc(Cl)c12 |  | > 100 |  | > 100 |  | > 100 |  | > 100 |  | > 100 |  | > 100 |  | > 100 |  | > 100 |  | > 100 |  | > 100
O=C(NC(=O)c1c(Cl)nc2sccn12)Nc1ccc(Cl)cc1 |  | > 100 |  | > 97.6 |  | 62.9 |  | 53.9 |  | > 100 |  | 88.1 |  | > 100 |  | > 93.6 |  | > 100 |  | > 100
ClCc1ccccc1Cn1cnc2ncnc(Cl)c21 | 1.65 | 4.24 | 18.6 | 32.8 | 2.29 | 5.96 | 4.76 | 24.4 | 4.44 | 23.9 | 4.97 | 17.6 | 1.5 | 4.11 | 2.26 | 4.22 | 5.88 | 22.1 | 2.93 | 10.1
COc1ccc(C(=O)c2cc(C)c(OC)c(C)c2)c(OC)c1NC(C)=O | 3.13 | > 100 | 0.0228 | 0.0795 | 0.0715 | > 100 | 1.82 | > 100 | 0.389 | > 100 | 0.369 | > 100 | 0.439 | > 100 | 0.31 | > 100 | > 100 | > 100 | 0.0483 | > 100
CN=C1C=CC(=C(c2ccc(N(C)C)cc2)c2ccc(N(C)C)cc2)C=C1 | 0.369 | 6.98 | 0.193 | 0.734 | 0.233 | 3.02 | 0.25 | 1.54 | 0.048 | 1.38 | 0.224 | 1.02 | 0.116 | 1.09 | 0.309 | 1.27 | 0.249 | 0.797 | 0.274 | 1.71
C#C[C@@]1(O)[C@@H](CO)O[C@@H](n2cc(I)c3c(N)ncnc32)[C@@H]1O | 0.0489 | 0.831 | 0.309 | 1.43 | 0.785 | 7.83 | 1.1 | 49.9 | 0.298 | > 100 | 0.327 | 6.48 | 0.0434 | > 100 | 0.243 | 3.01 | 2.33 | 27.8 | 0.127 | > 100
CN(C)CC1CC/C(=C\c2ccc3c(c2)OCO3)C1=O (stereo not drawn) |  | 13.8 |  | 52.1 |  | > 100 |  | 26.7 |  | > 75.3 |  | 24.4 |  | 18.6 |  | 50.7 |  | 20.1 |  | 19.7
C#CC1=CC(=O)C(OC)=CC1=O |  | > 100 |  | > 100 |  | > 100 |  | > 100 |  | > 100 |  | 60 |  | 40 |  | 81.5 |  | > 100 |  | 37.4
C1CN(c2nnc(N3CCC3)nn2)C1 |  | > 100 |  | > 100 |  | > 92.9 |  | > 100 |  | > 100 |  | 79.7 |  | > 100 |  | > 100 |  | 49.4 |  | > 100
S=C1Cc2c(-c3ccc(Br)cc3)cc(-c3ccccc3)nc2-c2ccccc2N1 |  | 72 |  | 3.71 |  | 3.84 |  | 6.19 |  | 8.23 |  | 12.6 |  | 5.38 |  | 11.3 |  | 9.74 |  | 10.3
COc1ccc(-c2cncn2-c2cc(OC)c(OC)c(OC)c2)cc1 | 1.87 | > 77 | 0.103 | 17.5 | 0.123 | > 6.68 | 2.01 | 59.7 | 0.471 | > 63.8 | 0.659 | > 43.7 |  | 4.78 | 0.0779 | 1.37 | 6.73 | > 86.9 | 0.151 | 9.92
COc1cccc2cc(N(C)c3nc(C)nc4c3CCC4)ccc12 | < 0.01 | 16.1 | < 0.01 | 14.7 | < 0.01 | 30 | < 0.01 | 15.6 | < 0.01 | 14.2 | < 0.01 | 18 | < 0.01 | 10.4 | < 0.01 | 14 | 2.57 | 20.6 | < 0.01 | 12
CS(=O)(=O)Nc1cccc(-c2ccc3ncnc(Nc4ccc(F)c(Cl)c4)c3c2)c1 | 1.8 | 12.4 | 0.118 | 2.27 | 1.85 | 5.55 | 1.97 | 9.14 | 1.58 | 7.49 | 2.15 | 6.57 | 1.59 | 3.29 | 1.94 | 3.84 | 2.05 | 5.07 | 1.29 | 13.8
CCN(CC)CCCC(C)Nc1cc(-c2cccc(OC(F)(F)F)c2)nc2ccc(N3CCCC3)cc12 (stereo not drawn) | 0.306 | > 100 | 0.0301 | 3.03 | 0.0337 | 3.22 | 0.196 | 19.8 | 0.0677 | > 100 | 0.161 | > 64 | 0.0371 | 13.7 | 0.224 | 2.98 | 0.97 | 47.7 | 0.0782 | 13.6
CC(=O)OC12C=C(C)C(C(C)C1)C1C(=O)N(CCN3CCCCC3)C(=O)C12 (stereo not drawn) | > 50 | > 50 | > 50 | > 50 | 48 | > 50 | > 50 | > 50 | > 50 | > 50 | > 50 | > 50 | > 50 | > 50 | > 50 | > 50 | > 50 | > 50 | > 50 | > 50
O=C(CN(/C=C/C(=O)C(F)(F)F)c1ccc(Cl)cc1)c1ccc(Cl)c(Cl)c1 | 2.57 | 10.5 | 3.65 | 16.7 | 16.6 | 38.3 | 4.13 | 16.4 | 7.09 | 21.5 | 6.1 | 19.2 | 3.54 | 13.2 | 12.6 | 26.2 | 14 | 30.2 | 16.7 | 33.4
